Measured values published in US4997829A, “Penem compounds, and use thereof” (Suntory Limited, priority 1985, dated 1991).

Columns and labels:
Assay in all cases: Minimum inhibitory concentration (MIC), agar plate dilution method
Format in all cases: cell-based
S. aureus FAD209P JC-1 = conditions: 10^6 CFU inoculated, 37° C., 18 hours; for MIC: Staphylococcus aureus, FAD209PJC1
Procedure: (§1) With regard to the novel compounds obtained according to this invention and the compounds of Reference Examples, their minimum inhibitory concentrations (MIC) were determined by the agar plate dilution method in accordance with the MIC measuring standard method of The Chemotherapeutic Society of Japan, whereby 10^6 colony forming units were inoculated and the minimal concentration to inhibit the microbial growth after inclubation at 37° C. for 18 hours were determined, as shown as μg/ml in Table.

F. varium ATCC8501 = conditions: 10^6 CFU inoculated, 37° C., 18 hours; for MIC: Fusobacterium varium, ATCC8501
Procedure: as §1

E. coli W3630/Rms213 = conditions: for MIC: Escherichia coli, W3630/RMS213, 18 h, read-out: minimum inhibitory concentration (MIC)
Procedure: as §1

Pr. morganii IFO3848 = conditions: 10^6 CFU inoculated, 37° C., 18 hours; for MIC: Morganella morganii, IFO3848
Procedure: as §1

E. coli NIHI JC-2 = conditions: 10^6 CFU inoculated, 37° C., 18 hours; for MIC: Escherichia coli, NIHIJC2
Procedure: as §1

Ser. marcescens IMA 1136 = conditions: 10^6 CFU inoculated, 37° C., 18 hours; for MIC: Serratia marcescens, IMA1136
Procedure: as §1

Ent. cloacae 963 = conditions: 10^6 CFU inoculated, 37° C., 18 hours; for MIC: Enterobacter cloacae, 963
Procedure: as §1

K. pneumoniae PC1602 = conditions: 10^6 CFU inoculated, 37° C., 18 hours; for MIC: Klebsiella pneumoniae, PC1602
Procedure: as §1

E. coli W3630/Rms212 = conditions: for MIC: Escherichia coli, W3630/RMS212, 18 h, read-out: minimum inhibitory concentration (MIC)
Procedure: as §1

M. luteus ATCC9341 = conditions: 10^6 CFU inoculated, 37° C., 18 hours; for MIC: Micrococcus luteus, ATCC9341
Procedure: as §1

Pr. vulgaris GN7919 = conditions: 10^6 CFU inoculated, 37° C., 18 hours; for MIC: Proteus vulgaris, GN7919
Procedure: as §1

B. fragilis V-280-1 = conditions: 10^6 CFU inoculated, 37° C., 18 hours; for MIC: Bacteroides fragilis, V2801
Procedure: as §1

B. fragilis GM7000 = conditions: 10^6 CFU inoculated, 37° C., 18 hours; for MIC: Bacteroides fragilis, GM7000
Procedure: as §1

Al. fecalis IFO13111 = conditions: 10^6 CFU inoculated, 37° C., 18 hours
Procedure: as §1

[1] = 10^6 CFU inoculated, 37° C., 18 hours

Structure (SMILES): C[C@@H](O)[C@@H]1C(=O)N2C(C(=O)[O-])=C([C@H]3CCC(=O)O3)S[C@@H]12.[K+] [SUN 4325, Potassium (1'R, 2"R, 5S, 6R)-6-(1'-hydroxyethyl)-2[2"-(5"-oxo)oxolanyl]penem-3-carboxylate]
- minimum inhibitory concentration (MIC) (S. aureus FAD209P JC-1): 3.13 µg/mL
- minimum inhibitory concentration (MIC) (F. varium ATCC8501): > 12.5 µg/mL
- minimum inhibitory concentration (MIC) (E. coli W3630/Rms213; [1]): 25 µg/mL
- minimum inhibitory concentration (MIC) (Pr. morganii IFO3848): 50 µg/mL
- minimum inhibitory concentration (MIC) (E. coli NIHI JC-2): 25 µg/mL
- minimum inhibitory concentration (MIC) (Ser. marcescens IMA 1136): 50 µg/mL
- minimum inhibitory concentration (MIC) (Ent. cloacae 963): > 50 µg/mL
- minimum inhibitory concentration (MIC) (K. pneumoniae PC1602): 1.25 µg/mL
- minimum inhibitory concentration (MIC) (E. coli W3630/Rms212; [1]): > 50 µg/mL
- minimum inhibitory concentration (MIC) (M. luteus ATCC9341): 1.56 µg/mL
- minimum inhibitory concentration (MIC) (Pr. vulgaris GN7919): > 50 µg/mL
- minimum inhibitory concentration (MIC) (B. fragilis V-280-1): > 12.5 µg/mL
- minimum inhibitory concentration (MIC) (B. fragilis GM7000): 3.13 µg/mL
- minimum inhibitory concentration (MIC) (Al. fecalis IFO13111): 12.5 µg/mL

Structure (SMILES): C[C@@H](O)[C@H]1C(=O)N2C(C(=O)O)=C([C@H]3CCOC3)S[C@H]12 [SUN 4725, Potassium (1'R, 3"S, 5R, 6S)-6-(1'-hydroxyethyl)-2-(11-tetrahydrofuranyl)penem-3-carboxylate]
- MIC (S. aureus FAD209P JC-1): 0.05 µg/mL
- MIC (F. varium ATCC8501): 0.39 µg/mL
- MIC (E. coli W3630/Rms213): 1.56 µg/mL
- MIC (Pr. morganii IFO3848): 12.5 µg/mL
- MIC (E. coli NIHI JC-2): 1.56 µg/mL
- MIC (Ser. marcescens IMA 1136): 6.25 µg/mL
- MIC (Ent. cloacae 963): 6.25 µg/mL
- MIC (K. pneumoniae PC1602): 0.1 µg/mL
- MIC (E. coli W3630/Rms212): 3.13 µg/mL
- MIC (M. luteus ATCC9341): 0.1 µg/mL
- MIC (Pr. vulgaris GN7919): 0.78 µg/mL
- MIC (B. fragilis V-280-1): 0.05 µg/mL
- MIC (B. fragilis GM7000): 0.05 µg/mL
- MIC (Al. fecalis IFO13111): 0.78 µg/mL

Structure (SMILES): C[C@@H](O)[C@H]1C(=O)N2C(C(=O)O)=C([C@@H]3CCOC3)S[C@H]12 [SUN 4726, Potassium (1'R, 3"R, 5R, 6S)-6-(1'-hydroxyethyl)-2-(3"-tetrahydrofuranyl)penem-3-carboxylate]
- MIC (S. aureus FAD209P JC-1): 0.05 µg/mL
- MIC (F. varium ATCC8501): 0.1 µg/mL
- MIC (E. coli W3630/Rms213): 1.56 µg/mL
- MIC (Pr. morganii IFO3848): 12.5 µg/mL
- MIC (E. coli NIHI JC-2): 1.56 µg/mL
- MIC (Ser. marcescens IMA 1136): 12.5 µg/mL
- MIC (Ent. cloacae 963): 6.25 µg/mL
- MIC (K. pneumoniae PC1602): 0.05 µg/mL
- MIC (E. coli W3630/Rms212): 3.13 µg/mL
- MIC (M. luteus ATCC9341): 0.05 µg/mL
- MIC (Pr. vulgaris GN7919): 1.56 µg/mL
- MIC (B. fragilis V-280-1): 0.05 µg/mL
- MIC (B. fragilis GM7000): 0.05 µg/mL
- MIC (Al. fecalis IFO13111): 1.56 µg/mL

Structure (SMILES): C[C@@H](O)[C@H]1C(=O)N2C(C(=O)O)=C([C@@H]3CCCCO3)S[C@H]12 [SUN 4740, Potassium (1'R, 2"S, 5R, 6S)-6-(1'-hydroxyethyl)-2-(2"-tetrahydropyranyl)penem-3-carboxylate]
- MIC (S. aureus FAD209P JC-1): 0.1 µg/mL
- MIC (F. varium ATCC8501): 6.25 µg/mL
- MIC (E. coli W3630/Rms213): > 50 µg/mL
- MIC (Pr. morganii IFO3848): 25 µg/mL
- MIC (E. coli NIHI JC-2): > 50 µg/mL
- MIC (Ser. marcescens IMA 1136): > 50 µg/mL
- MIC (Ent. cloacae 963): > 50 µg/mL
- MIC (K. pneumoniae PC1602): 3.13 µg/mL
- MIC (E. coli W3630/Rms212): > 50 µg/mL
- MIC (M. luteus ATCC9341): 0.05 µg/mL
- MIC (Pr. vulgaris GN7919): 1.25 µg/mL
- MIC (B. fragilis V-280-1): 0.78 µg/mL
- MIC (B. fragilis GM7000): 0.78 µg/mL
- MIC (Al. fecalis IFO13111): 6.25 µg/mL

Structure (SMILES): C[C@@H](O)[C@H]1C(=O)N2C(C(=O)O)=C([C@H]3CCCCO3)S[C@H]12 [SUN 4741, Potassium (1'R, 2"R, 5R, 6S)-6-(1'-hydroxyethyl)-2-(2"-tetrahydropyranyl)penem-3-carboxylate]
- MIC (S. aureus FAD209P JC-1): 0.1 µg/mL
- MIC (F. varium ATCC8501): 0.39 µg/mL
- MIC (E. coli W3630/Rms213): 6.25 µg/mL
- MIC (Pr. morganii IFO3848): 3.13 µg/mL
- MIC (E. coli NIHI JC-2): 6.25 µg/mL
- MIC (Ser. marcescens IMA 1136): 25 µg/mL
- MIC (Ent. cloacae 963): 25 µg/mL
- MIC (K. pneumoniae PC1602): 0.1 µg/mL
- MIC (E. coli W3630/Rms212): 12.5 µg/mL
- MIC (M. luteus ATCC9341): 0.1 µg/mL
- MIC (Pr. vulgaris GN7919): 3.13 µg/mL
- MIC (B. fragilis V-280-1): 0.1 µg/mL
- MIC (B. fragilis GM7000): 0.1 µg/mL
- MIC (Al. fecalis IFO13111): 0.78 µg/mL

Structure (SMILES): C[C@@H](O)[C@H]1C(=O)N2C(C(=O)O)=C([C@@H]3COCCO3)S[C@H]12 [SUN 4770, Potassium (1'R, 2"S, 5R, 6S)-6-(1'-hydroxyethyl)-2-(2"-para-dioxanyl)penem-3-carboxylate]
- MIC (S. aureus FAD209P JC-1): 0.2 µg/mL
- MIC (F. varium ATCC8501): 3.13 µg/mL
- MIC (E. coli W3630/Rms213): 12.5 µg/mL
- MIC (Pr. morganii IFO3848): 25 µg/mL
- MIC (E. coli NIHI JC-2): 1.56 µg/mL
- MIC (Ser. marcescens IMA 1136): 50 µg/mL
- MIC (Ent. cloacae 963): 25 µg/mL
- MIC (K. pneumoniae PC1602): 0.78 µg/mL
- MIC (E. coli W3630/Rms212): 12.5 µg/mL
- MIC (M. luteus ATCC9341): 0.1 µg/mL
- MIC (Pr. vulgaris GN7919): 6.25 µg/mL
- MIC (B. fragilis V-280-1): 0.39 µg/mL
- MIC (B. fragilis GM7000): 0.39 µg/mL
- MIC (Al. fecalis IFO13111): 6.25 µg/mL
